Data set [1] in a line: Ratio of drug level in Fisher 344 rat brain to rat 9L tumor cells implanted in Fisher 344 rat after 30 mins. The class given is ADME, cell-based. The settings on record: 0.5 h.
The nature of data set [2]: Ratio of drug level in Fisher 344 rat brain to rat 9L tumor cells implanted in Fisher 344 rat after 60 mins. The note with it: 1 h. The class given is ADME, cell-based.
Data set [3] in a line: Ratio of drug level in Fisher 344 rat brain to rat 9L tumor cells implanted in Fisher 344 rat after 120 mins. The format is ADME, cell-based. The settings on record: 2 h.
Data set [4] in a line: Ratio of drug level in Fisher 344 rat brain to rat 9L tumor cells implanted in Fisher 344 rat after 15 mins. The format is ADME, cell-based. The note with it: 0.25 h.
Data set [5] is described as follows: Drug uptake in rat 9L tumor implanted in Fischer 344 rat after 15 mins relative to control. The format is ADME, Neoplasm. The settings on record: read-out: Drug uptake.
The nature of data set [6]: Drug uptake in rat 9L tumor implanted in Fischer 344 rat after 30 mins relative to control. The format is ADME, Neoplasm. The note with it: read-out: Drug uptake.
A further data set has as its system 9L. In words: Cellular uptake in rat 9L cells after 30 mins measured per 0.5 million cells. The note with it: 0.5 h. The format is ADME, cell-based.
Data set [7] is described as follows: Drug uptake in rat 9L tumor implanted in Fischer 344 rat after 120 mins relative to control. The class given is ADME, Neoplasm. The settings on record: read-out: Drug uptake.
Data set [8] can be described thus: Drug uptake in rat 9L tumor implanted in Fischer 344 rat after 60 mins relative to control. The class given is ADME, Neoplasm. The note with it: read-out: Drug uptake.
Data set [9] can be described thus: Drug uptake in rat 9L cells xenografted Fisher 344 rat brain measured per gram of tissue. The class given is ADME, cell-based. The settings on record: Fischer 344, rat, read-out: Drug uptake.

In the case of `N[C@]1(C(=O)O)C[C@H](C[18F])C1`, the Ratio in data set [1] is listed as 6.9.
With `N[C@@]1(C(=O)O)CC[C@@H]1[18F]`, the Ratio in data set [2] is listed as 14; in data set [3], 26; in data set [4], 12; in [1], 17. In data set [5], the tissue uptake at 0.25 h is 0.51 %ID/g. Moreover, the tissue uptake at 0.5 h in data set [6] was 0.66 %ID/g. The compound also registered a Drug uptake in the data set on 9L of 3.3%. Besides, in data set [7], the tissue uptake at 2 h amounted to 0.6 %ID/g. Moreover, the tissue uptake at 1 h in data set [8] turned out to be 0.65 %ID/g. Further, the tissue uptake in data set [9] worked out at 0.04 %ID/g.
Take `N[C@]1(C(=O)O)C[C@H]([18F])C1`: the Ratio in data set [1] stood at 7.6.
On the same count and under the same terms, in the case of `N[C@]1(C(=O)O)C[C@@H](C[18F])C1` it was 8.9; in that of `N[C@]1(C(=O)O)C[C@@H]([18F])C1` [FLUCICLOVINE F18], 6.6.

The record behind these values is ChEMBL document CHEMBL1156327, “Synthesis and biological evaluation of anti-1-amino-2-[18F]fluoro-cyclobutyl-1-carboxylic acid (anti-2-[18F]FACBC) in rat 9L gliosarcoma” (Bioorg Med Chem Lett, 2010).
